Results reported in patent US20090062206A1 (UNIVERSITY OF SOUTH FLORIDA, priority 2006, published 2009).
Like-named read-outs stand apart in the source and are kept apart here.

Key:
[1] = system: human renal carcinoma cells; assay: DNA synthesis by bromodeoxyuridine (BrdU) incorporation into renal carcinoma cells; format: cell-based; settings: 1 μM, incubated 24 hours
Excerpt: To investigate whether these peptide hormones were inhibiting DNA synthesis, bromodeoxyuridine (BrdU) incorporation into the renal carcinoma cells was utilized as previously described from our laboratory. BrdU was from BD Bioscience, San Jose, Calif.

[2] = target: NPR-A receptor (Homo sapiens, UniProt P16066); settings: cited from earlier work
[3] = system: human renal-cell carcinoma cells (ATCC CRL-2175); assay: Decrease in number of human renal-cell carcinoma cells (cell counting on coverslips); format: cell-based; settings: for number of renal carcinoma cells remaining per high powered field: control 89±7 cells
Description: A cell line (ATCC number CRL-2175) of human renal-cell carcinoma cells were purchased from American Type Culture Collection (ATCC, Manassas, Va.). This renal cancer cell line was established by A. Leibovitz in 1972 from a renal-cell carcinoma removed from a person with blood type O, Rh+.
Propagation of these renal cancer cells was in Leibovitz's L-15 medium supplemented with 10% fetal bovine serum (Atlanta Biologicals, Lawrenceville, Ga.) at a temperature of 37° C. in a CO2 free environment as recommended by the ATCC. Cells were dispensed in new flasks with subculturing two to three times per week.
After the renal-cell carcinoma cells were subcultured for 24 hours they were then seeded to coverslips in 24-well plates (Nunclon™, Roskilde, Denmark) with 1 mL of the above media. There were 65,000 cells seeded to each coverslip. After 24 hours, the well plates were washed twice with phosphate-buffered saline to remove the fetal bovine serum. Removal of serum was carried out to completely remove all variables (EGF, etc.) present in serum in order that interpretation of any data obtained would be straightforward. After 24 hours of serum deprivation, media volume was reduced to 250 μL per well with, or without, the respective peptide hormones in dose-response curves with concentrations up to and including 100 μM (1% of this volume). Human renal carcinoma cells were then incubated for various periods of time [24, 48, 72, and 96 hours]. The number of renal carcinoma cells were then counted with a cell counter (Thomas Scientific Swedesboro, N. J.) evaluating ten fields of the microscope slide at x40 along the X-axis with an Olympus BH-2 microscope (Atlanta, Ga.). This evaluation was repeated on six separate occasions with the number of renal carcinoma cells reflecting 60 observations for each group, i.e., 60 observations for controls and 60 observations for each of the six groups with respective peptide hormones. The peptide hormones used in this investigation were from Phoenix Pharmaceuticals, Inc., Belmont, Calif. In the Results section, the number of cancer cells reported is the number of cells in each individual field. Ten fields were examined on each microscope slide. The results of the ten fields were pooled and the average of the ten fields is illustrated in the Results section.
The number of renal carcinoma cells after 24 hours without the addition of any of the peptide hormones averaged 89±7 cells per high powered field when ten fields of the coverslip were evaluated at ×40 along the X-axis with an Olympus BH2 microscope. This evaluation was repeated on six separate occasions, with the above number reflecting 60 observations by two independent investigators of the control group and each of the five groups with the addition of one of the peptide hormones. The same number of observations were done in a seventh group where four of the peptides were added together (each at 1 μM) to determine if they may have an additive effect.

[4] = target: NPR-C receptor (Homo sapiens, UniProt P17342); settings: cited from earlier work
[5] = human or animal subjects; cited from earlier work
[6] = system: small-cell lung cancer cells; settings: 1 μM; cited from earlier work
[7] = system: prostate adenocarcinoma; settings: 1 μM; cited from earlier work
[8] = 1 μM, at 48 hours after 24 hour exposure
[9] = 1 μM, at 72 hours after 24 hour exposure
[10] = 1 μM, at 96 hours after 24 hour exposure
[11] = 10 μM, at 48 hours after 24 hour exposure
[12] = 10 μM, at 72 hours after 24 hour exposure
[13] = 10 μM, at 96 hours after 24 hour exposure
[14] = 100 μM, at 48 hours after 24 hour exposure
[15] = 100 μM, at 72 hours after 24 hour exposure
[16] = 100 μM, at 96 hours after 24 hour exposure

Sequence of NPR-C receptor (P17342 27-541): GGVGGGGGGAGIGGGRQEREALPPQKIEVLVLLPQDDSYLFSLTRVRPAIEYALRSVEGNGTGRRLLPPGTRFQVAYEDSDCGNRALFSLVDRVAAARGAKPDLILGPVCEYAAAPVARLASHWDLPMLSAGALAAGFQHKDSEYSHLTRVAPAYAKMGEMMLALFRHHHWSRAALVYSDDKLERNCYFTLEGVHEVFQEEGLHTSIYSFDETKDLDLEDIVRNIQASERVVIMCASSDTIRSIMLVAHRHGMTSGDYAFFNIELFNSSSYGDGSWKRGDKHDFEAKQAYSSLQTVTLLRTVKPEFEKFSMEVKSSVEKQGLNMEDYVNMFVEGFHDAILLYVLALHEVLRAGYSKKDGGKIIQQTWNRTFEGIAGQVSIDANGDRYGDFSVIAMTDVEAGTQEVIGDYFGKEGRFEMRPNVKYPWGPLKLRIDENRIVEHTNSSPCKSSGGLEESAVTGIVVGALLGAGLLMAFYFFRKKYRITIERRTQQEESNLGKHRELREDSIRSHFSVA
Sequence of NPR-A receptor (P16066 33-1061): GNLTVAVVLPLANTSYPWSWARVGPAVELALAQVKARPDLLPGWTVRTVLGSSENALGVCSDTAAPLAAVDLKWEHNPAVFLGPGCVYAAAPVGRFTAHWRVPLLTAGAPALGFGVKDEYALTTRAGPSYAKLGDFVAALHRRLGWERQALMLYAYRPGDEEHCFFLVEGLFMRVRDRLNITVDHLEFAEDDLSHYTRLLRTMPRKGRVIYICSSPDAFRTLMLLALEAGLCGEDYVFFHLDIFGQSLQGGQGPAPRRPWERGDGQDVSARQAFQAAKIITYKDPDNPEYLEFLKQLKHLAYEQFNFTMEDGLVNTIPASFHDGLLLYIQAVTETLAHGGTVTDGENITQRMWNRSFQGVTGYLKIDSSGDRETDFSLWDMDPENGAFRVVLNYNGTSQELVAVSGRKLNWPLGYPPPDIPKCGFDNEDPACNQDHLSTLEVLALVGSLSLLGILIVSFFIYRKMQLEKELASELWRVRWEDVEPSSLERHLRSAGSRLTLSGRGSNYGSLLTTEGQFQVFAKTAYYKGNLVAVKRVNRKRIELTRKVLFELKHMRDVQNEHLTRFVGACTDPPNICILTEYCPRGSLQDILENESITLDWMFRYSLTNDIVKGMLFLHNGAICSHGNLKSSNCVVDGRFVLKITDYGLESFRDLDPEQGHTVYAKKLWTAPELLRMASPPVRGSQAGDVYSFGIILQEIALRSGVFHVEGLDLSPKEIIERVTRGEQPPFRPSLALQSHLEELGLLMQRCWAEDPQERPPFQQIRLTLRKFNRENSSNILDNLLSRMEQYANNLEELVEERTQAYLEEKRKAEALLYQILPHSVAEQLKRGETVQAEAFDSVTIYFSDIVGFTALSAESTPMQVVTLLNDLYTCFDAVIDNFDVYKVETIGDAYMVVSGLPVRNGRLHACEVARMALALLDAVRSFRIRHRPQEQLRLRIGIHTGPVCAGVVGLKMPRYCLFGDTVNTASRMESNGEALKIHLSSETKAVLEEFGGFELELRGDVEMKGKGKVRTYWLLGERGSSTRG

Compound	inhibition of DNA synthesis [1] [%]	decrease in number of renal carcinoma cells ([3]; 1 μM, 24 hours) [%]	decrease in number of renal carcinoma cells [3, 8] [%]	decrease in number of renal carcinoma cells [3, 9] [%]	decrease in number of renal carcinoma cells [3, 10] [%]	decrease in number of renal carcinoma cells ([3]; 10 μM, 24 hours) [%]	decrease in number of renal carcinoma cells [3, 11] [%]	decrease in number of renal carcinoma cells [3, 12] [%]	decrease in number of renal carcinoma cells [3, 13] [%]	decrease in number of renal carcinoma cells ([3]; 100 μM, 24 hours) [%]	number of renal carcinoma cells remaining per high powered field ([3]; 100 μM, 24 hours) [cells]	decrease in number of renal carcinoma cells [3, 14] [%]	decrease in number of renal carcinoma cells [3, 15] [%]	decrease in number of renal carcinoma cells [3, 16] [%]	side effect hypotension [5]	also measured
Urodilatin	65	24	17	15	10	46	46	43	37	66	30±2	65	64	58	–	binding curves compared with ANP [2]: superimposable with ANP; binding curves compared with ANP ([2]; listed as urodilatin): nearly superimposable binding curves; cancer cells killed (maximum) ([3]; within 24 hours, concentration not given): up to 81%; binding curves compared with ANP [4]: superimposable with ANP; binding curves compared with ANP ([4]; listed as urodilatin): nearly superimposable binding curves
vessel dilator: peptide hormone within the 126 amino acid ANP prohormone synthesized in the heart (EVVPPQVLSEPNEEAGAALSPLPEVPPWTGEVSPAQR; Vessel dilator; UniProt P01160 56-92, looked up)	84	59	55	51	43	62	66	64	55	81	17±4	81	80	68	never	–
LANP: long acting natriuretic peptide, peptide hormone within the 126 amino acid ANP prohormone (NPMYNAVSNADLMDFKNLLDHLEEKMPLED; Long-acting natriuretic peptide; UniProt P01160 26-55, looked up)	70	–	30	30	24	55	50	47	39	70	26±2	70	70	61	never	–
kaliuretic peptide: peptide hormone within the 126 amino acid ANP prohormone synthesized in the heart (SSDRSALLKSKLRALLTAPR; Kaliuretic peptide; UniProt P01160 104-123, looked up)	74	39	35	31	25	54	52	47	40	74	23±3	76	71	64	never	decrease in cancer cell number [6]: 30%; decrease in cancer cell number [7]: 30%
CC[C@H](C)[C@@H]1NC(=O)[C@H](CCCNC(=N)N)NC(=O)[C@H](CC(=O)O)NC(=O)[C@H](CCSC)NC(=O)[C@H](CCCNC(=N)N)NC(=O)CNC(=O)CNC(=O)[C@H](Cc2ccccc2)NC(=O)[C@@H](NC(=O)[C@H](CO)NC(=O)[C@H](CO)NC(=O)[C@H](CCCNC(=N)N)NC(=O)[C@H](CCCNC(=N)N)NC(=O)[C@H](CC(C)C)NC(=O)[C@@H](N)CO)CSSC[C@@H](C(=O)N[C@@H](CC(N)=O)C(=O)N[C@@H](CO)C(=O)N[C@@H](Cc2ccccc2)C(=O)N[C@@H](CCCNC(=N)N)C(=O)N[C@@H](Cc2ccc(O)cc2)C(=O)O)NC(=O)CNC(=O)[C@H](CC(C)C)NC(=O)CNC(=O)[C@H](CO)NC(=O)[C@H](CCC(N)=O)NC(=O)[C@H](C)NC(=O)CNC1=O [ANP]	77	–	–	–	–	–	–	–	–	–	–	–	–	–	observed	–
